Data: the supplement of paper PMC11061612

Assays:
Assay in all cases: Bliss excess, mean over the matrix (fraction); higher = more synergy
[1] = tested on: RS4-11 (B-Lymphoblastic Leukemia)
Outline: (§1)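 After 24 hours at 37°C and 5% CO2 in 1536-well plates, cells in DMEM/F12 or RPMI plus 10% FBS received two-drug dose matrices for 72 hours. Viability came from CellTiter-Glo 2.0 luminescence and was scaled as inhibition, anchored at 0 by vehicle wells and at 1 by blank wells. Combination Emax is taken as the second-highest inhibition in the matrix, and Bliss excess as the observed combination effect less EA + EB − EA·EB, with EA and EB the single-agent effects.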

DK-MG (Glioblastoma) = tested on: DK-MG (Glioblastoma)
Outline: as §1

[2] = tested on: MRK-nu-1 (Breast Carcinoma)
Outline: as §1

[3] = tested on: SNU-1 (Gastric Carcinoma)
Outline: as §1

[4] = tested on: NCI-H2023 (Non-Small Cell Lung Carcinoma)
Outline: as §1

[5] = tested on: MDA-MB-175-VII (Breast Carcinoma)
Outline: as §1

[6] = tested on: HT-3 (Cervical Carcinoma)
Outline: as §1

[7] = tested on: NCI-H1648 (Lung Adenocarcinoma)
Outline: as §1

[8] = tested on: NCI-H2170 (Squamous Cell Lung Carcinoma)
Outline: as §1

[9] = tested on: NCI-H1975 (Lung Adenocarcinoma)
Outline: as §1

[10] = tested on: BC-1 (B-Cell Non-Hodgkin's Lymphoma)
Outline: as §1

[11] = tested on: SUP-HD1 (Hodgkin's Lymphoma)
Outline: as §1

SK-MEL-24 (Melanoma) = tested on: SK-MEL-24 (Melanoma)
Outline: as §1

HT-144 (Melanoma) = tested on: HT-144 (Melanoma)
Outline: as §1

GCIY (Gastric Carcinoma) = tested on: GCIY (Gastric Carcinoma)
Outline: as §1

[12] = tested on: KNS-62 (Squamous Cell Lung Carcinoma)
Outline: as §1

[13] = tested on: SBC-5 (Small Cell Lung Carcinoma)
Outline: as §1

[14] = tested on: TOV-21G (Ovarian Carcinoma)
Outline: as §1

[15] = tested on: HT-1197 (Bladder Carcinoma)
Outline: as §1

[16] = tested on: OVKATE (Ovarian Carcinoma)
Outline: as §1

Row | Structure (SMILES) | Bliss excess [1] | Bliss excess (DK-MG (Glioblastoma)) | Bliss excess [2] | Bliss excess [3] | Bliss excess [4] | Bliss excess [5] | Bliss excess [6] | Bliss excess [7] | Bliss excess [8] | Bliss excess [9] | Bliss excess [10] | Bliss excess [11] | Bliss excess (SK-MEL-24 (Melanoma)) | Bliss excess (HT-144 (Melanoma)) | Bliss excess (GCIY (Gastric Carcinoma)) | Bliss excess [12] | Bliss excess [13] | Bliss excess [14] | Bliss excess [15] | Bliss excess [16]
1 | COc1cccc(OCCCN)c1-c1cc(Nc2cnc(C#N)cn2)n[nH]1 [Prexasertib] + CCc1c2c(nc3ccc(O)cc13)-c1cc3c(c(=O)n1C2)COC(=O)[C@]3(O)CC [SN-38] (first compound max 1 µM, 7x7, partner max 0.3 µM) | 0.0066 | -0.0146 | -0.0613 | -0.0357 | -0.0527 | -0.0027 | 0.0221 | 0.0114 | -0.0326 | 0.108 | -0.0226 | -0.075 | -0.0557 | -0.0236 | -0.0379 | -0.0385 | 0.0007 | -0.122 | -0.0376 | -0.0292
2 | COc1nnc2ccc(N3CCC(c4ccc(OCCN5CCN(C)C(=O)[C@H]5C)cc4)CC3)nn12 [AZD5153] + Cn1cnc2c(F)c(Nc3ccc(Br)cc3Cl)c(C(=O)NOCCO)cc21 [Selumetinib] (first compound max 1 µM, 7x7, partner max 10 µM) | -0.0454 | -0.032 | -0.0169 | 0.063 | -0.0158 | 0.019 | 0.0276 | 0.0093 | -0.0712 | -0.0045 | -0.036 | -0.0019 | -0.0003 | 0.0212 | 0.0023 | -0.0169 | 0.001 | -0.02 | 0.108 | -0.0413
3 | CC1(C)CCC(CN2CCN(c3ccc(C(=O)NS(=O)(=O)c4ccc(NCC5CCOCC5)c([N+](=O)[O-])c4)c(Oc4cnc5[nH]ccc5c4)c3)CC2)=C(c2ccc(Cl)cc2)C1 [Venetoclax] + CCN(CCO)CCCOc1ccc2c(Nc3cc(CC(=O)Nc4cccc(F)c4)[nH]n3)ncnc2c1 [AZD2811] (first compound max 1 µM, 7x7, partner max 1 µM) | 0.003 | -0.0784 | 0.0341 | 0.0266 | -0.067 | -0.0228 | -0.0129 | -0.0235 | -0.0185 | -0.0555 | 0.111 | -0.0195 | -0.053 | -0.0132 | -0.0468 | 0.0131 | 0.0161 | 0.0149 | -0.0204 | -0.0661
4 | Cn1cnc2c(F)c(Nc3ccc(Br)cc3Cl)c(C(=O)NOCCO)cc21 [Selumetinib] + CC(C)n1c(=O)n(C)c2cnc3cc(F)c(-c4ccc(OCCCN5CCCCC5)nc4)cc3c21 [AZD1390] (first compound max 10 µM, 7x7, partner max 0.3 µM) | -0.0245 | 0.0063 | 0.0225 | 0.025 | -0.0292 | -0.0235 | -0.0392 | -0.0418 | -0.0384 | -0.0473 | -0.0023 | -0.043 | -0.014 | -0.0653 | -0.0233 | -0.0513 | -0.0404 | -0.0336 | -0.0565 | -0.0178
5 | CN(C)CCCOc1ccc(-c2ccc3ncc4c(c3c2)n(C2CCOCC2)c(=O)n4C)cn1 [AZD0156] + C=CCn1c(=O)c2cnc(Nc3ccc(N4CCN(C)CC4)cc3)nc2n1-c1cccc(C(C)(C)O)n1 [AZD1775] (first compound max 1 µM, partner max 1 µM) | -0.0405 | -0.0003 | -0.0082 | -0.003 | 0.0007 | -0.0589 | -0.023 | -0.0468 | 0.0914 | 0.017 | -0.0006 | -0.0392 | -0.0255 | -0.0268 | -0.0428 | -0.0373 | -0.018 | 0.0044 | -0.102 | -0.0601
6 | Cc1c2c(nn1C)CSCc1cc(n(C)n1)CSc1cc(c3ccccc3c1)OCCCc1c(C(=O)O)n(C)c3c-2c(Cl)ccc13 [AZD5991] + C[C@@H]1COCCN1C2=NC(=NC(=C2)C3(CC3)[S@](=N)(=O)C)C4=C5C=CNC5=NC=C4 [AZD6738] (first compound max 1 µM, 7x7, partner max 10 µM) | -0.0197 | 0.046 | 0.0056 | 0.035 | -0.0078 | 0.0187 | 0.08 | 0.0052 | 0.0272 | 0.0671 | -0.0396 | -0.0279 | 0.0025 | 0.0039 | -0.0184 | 0.0235 | 0.0509 | 0.0322 | -0.104 | -0.0421
7 | C[C@@H]1COCCN1c1cc(C2([S@](C)(=N)=O)CC2)nc(-c2ccnc3[nH]ccc23)n1 [AZD6738] + O=C(c1cc(Cc2n[nH]c(=O)c3ccccc23)ccc1F)N1CCN(C(=O)C2CC2)CC1 [Olaparib] (first compound max 10 µM, 7x7, partner max 10 µM) | -0.0365 | 0.0079 | 0.0457 | -0.0358 | 0.0867 | 0.0522 | 0.0399 | 0.0086 | -0.0373 | -0.0088 | -0.0041 | -0.054 | -0.0105 | 0.0461 | -0.0433 | 0.0026 | 0.0025 | 0.0035 | -0.0042 | -0.0115
